Data as given in patent US7858621B2 (Amorepacific Corporation, priority 2006, dated 2010).

biological target: T1, vanilloid receptor (Rattus norvegicus, UniProt O35433); assay: 45Ca influx test in cultured neonatal rat DRG neurons, inhibition of capsaicin response; type: cell-based; details: neonatal rat DRG neurons, capsaicin 0.5 μM, 45Ca influx; read-out: Antagonist Calcium Uptake Test (IC50)
T1 construct: DRG nerve cells from the primary culture of 2 days were equilibrated; endogenous in cells; host or cells: primary culture of dorsal root ganglion neurons from neonatal SD rats
T1 sequence (O35433 whole entry): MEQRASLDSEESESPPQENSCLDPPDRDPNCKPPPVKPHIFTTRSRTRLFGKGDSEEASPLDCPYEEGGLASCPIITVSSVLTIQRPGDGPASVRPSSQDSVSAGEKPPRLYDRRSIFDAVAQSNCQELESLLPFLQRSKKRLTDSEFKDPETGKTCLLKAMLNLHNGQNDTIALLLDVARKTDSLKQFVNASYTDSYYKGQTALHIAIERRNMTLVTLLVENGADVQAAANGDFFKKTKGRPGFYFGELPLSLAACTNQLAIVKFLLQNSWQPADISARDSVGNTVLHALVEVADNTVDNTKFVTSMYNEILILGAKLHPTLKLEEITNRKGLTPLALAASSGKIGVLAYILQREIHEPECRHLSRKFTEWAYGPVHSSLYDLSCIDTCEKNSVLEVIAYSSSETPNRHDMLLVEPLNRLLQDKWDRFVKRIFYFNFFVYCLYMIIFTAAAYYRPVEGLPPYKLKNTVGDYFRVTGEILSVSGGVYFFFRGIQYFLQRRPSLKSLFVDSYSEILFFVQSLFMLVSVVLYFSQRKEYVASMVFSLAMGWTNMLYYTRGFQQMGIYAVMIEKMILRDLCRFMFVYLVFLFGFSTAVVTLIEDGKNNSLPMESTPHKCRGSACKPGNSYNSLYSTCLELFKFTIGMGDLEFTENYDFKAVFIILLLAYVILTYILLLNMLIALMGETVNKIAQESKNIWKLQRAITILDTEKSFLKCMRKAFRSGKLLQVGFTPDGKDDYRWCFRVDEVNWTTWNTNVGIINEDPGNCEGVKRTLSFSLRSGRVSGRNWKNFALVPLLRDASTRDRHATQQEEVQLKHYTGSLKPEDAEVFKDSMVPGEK
Description: 1) Separation of Spinal Dorsal Root Ganglia (DRG) in Newborn Rats and Primary Culture Thereof
Neonatal (2-3 day old or younger than 2-3 day old) SD rats were put in ice for 5 minutes to anesthetize and disinfected with 70% ethanol. […] The DRG were incubated sequentially at 37° C. for 30 mins in 200 U/ml collagenase and 2.5 mg/ml trypsin, separately. The ganglia were washed twice with DME/F12 medium supplemented with 10% horse serum, triturated through a fire-polished Pasteur pipette, filtered through Nitex 80 membrane to obtain single cell suspension and the suspension was washed once more. This was subjected to centrifugation, then resuspended in cell culture medium at certain level of cell density. As the cell culture medium, DME/F12 medium supplemented with 10% horse serum was diluted with identical medium conditioned by C6 glioma cells 2 days on a confluent monolayer (1:1), and NGF (Nerve Growth Factor) was added to adjust 200 ng/ml as final concentration. After the cells were grown 2 days in medium where cytosine arabinoside (Ara-C, 100 μM) was added to kill dividing nonneuronal cells, medium was changed to one without Ara-C. The resuspended cells were plated at a density of 1500-2000 neurons/well onto Terasaki plates previously coated with 10 μg/ml poly-D-ornithine.
2) ^45Ca Influx Experiments
DRG nerve cells from the primary culture of 2 days were equilibrated by washing 4 times with HEPES (10 mM, pH 7.4)-buffered Ca^2+, Mg^2+-free HBSS (H-HBSS). The solution in each well was removed from the individual well. Medium containing the test compound plus capsaicin (final concentration 0.5 μM) and ^45Ca (final concentration 10 μCi/ml) in H-HBSS was added to each well and incubated at room temperature for 10 mins. Terasaki plates were washed five times with H-HBSS and dried at room temperature. To each well, 0.3% SDS (10 μl) was added to elute ^45Ca. After the addition of scintillation cocktail of into each well, the amount of ^45Ca influx into neuron was measured by counting radioactivity.

Row | Compound | IC50 [nM]
1 | C#Cc1cc(CNC(=O)/C=C/c2ccc(C(F)(F)F)nc2Oc2ccccc2)cc(F)c1NS(C)(=O)=O [Example 78, N-(3-Ethynyl-5-fluoro-4-methanesulfonylamino-benzyl)-3-(2-phenoxy-6-trifluoromethyl-pyridin-3-yl)-acrylamide] | 120
2 | C#Cc1cc(CNC(=O)/C=C/c2ccc(C(F)(F)F)nc2OC2CCOC2)cc(F)c1NS(C)(=O)=O (stereo not shown) [Example 79, 3-[2-(Tetrahydro-furan-3-yloxy)-6-trifluoromethyl-pyridin-3-yl]-N-(3-ethynyl-5-fluoro-4-methanesulfonylamino-benzyl)-acrylamide] | 430
3 | C#Cc1cc(CNC(=O)/C=C/c2ccc(C(F)(F)F)nc2-n2cccn2)cc(F)c1NS(C)(=O)=O [Example 80, N-(3-Ethynyl-5-fluoro-4-methanesulfonylamino-benzyl)-3-[2-pyrazol-1-yl-6-trifluoromethyl-pyridin-3-yl]-acrylamide] | 3100
4 | CS(=O)(=O)Nc1ccc(CNC(=O)/C=C/c2ccc(C(F)(F)F)nc2Oc2cccnc2)cc1F [Example 81, N-(3-Fluoro-4-methanesulfonylamino-benzyl)-3-[2-(pyridin-3-yloxy)-6-trifluoromethyl-pyridin-3-yl]-acrylamide] | 11900
5 | C#Cc1cc(CNC(=O)/C=C/c2ccc(C(F)(F)F)nc2Oc2ccc(F)cc2)cc(F)c1NS(C)(=O)=O [Example 82, N-(3-Ethynyl-5-fluoro-4-methanesulfonylamino-benzyl)-3-[2-(4-fluoro-phenoxy)-6-trifluoromethyl-pyridin-3-yl]-acrylamide] | 600
6 | C#Cc1cc(CNC(=O)/C=C/c2ccc(C(F)(F)F)nc2OCC(F)(F)F)cc(F)c1NS(C)(=O)=O [Example 84, N-(3-Ethynyl-5-fluoro-4-methansulfonylamino-benzyl)-3-[2-(2,2,2-trifluoro-ethoxy)-6-trifluoromethyl-pyridin-3-yl]-acrylamide] | 240
7 | C#Cc1cc(CNC(=O)/C=C/c2ccc(C(F)(F)F)nc2N2CCC(OC)C2)cc(F)c1NS(C)(=O)=O (stereo not shown) [Example 85] | 180
8 | CCCCOc1nc(C(F)(F)F)ccc1CCC(=O)NCc1ccc(NS(C)(=O)=O)c(F)c1 [Example 86, 3-(2-Butoxy-6-trifluoromethyl-pyridin-3-yl)-N-(3-fluoro-4-methanesulfonylamino-benzyl)-propionamide] | 1200
9 | CS(=O)(=O)Nc1ccc(CNC(=O)/C=C/c2ccc(C(F)(F)F)nc2OCC(F)(F)F)cc1F [Example 87, N-(3-Fluoro-4-methanesulfonylamino-benzyl)-3-[2-(2,2,2-trifluoro-ethoxy)-6-trifluoromethyl-pyridin-3-yl]-acrylamide] | 2200
10 | CCCCNc1nc(C(F)(F)F)ccc1/C=C/C(=O)NCc1ccc(NS(C)(=O)=O)c(F)c1 [Example 88, 3-(2-Butylamino-6-trifluoromethyl-pyridin-3-yl)-N-(3-fluoro-4-methanesulfonylamino-benzyl)-acrylamide] | 400
11 | CS(=O)(=O)Nc1ccc(CNC(=O)/C=C/c2ccc(C(F)(F)F)nc2NC2CCCC2)cc1F [Example 89, 3-(2-Cyclopentylamino-6-trifluoromethyl-pyridin-3-yl)-N-(3-fluoro-4-methanesulfonylamino-benzyl)-acrylamide] | 280
12 | COC1CCN(c2nc(C(F)(F)F)ccc2C=CC(=O)NCc2ccc(NS(C)(=O)=O)c(F)c2)C1 (stereo not shown) [Example 90, N-(3-Fluoro-4-methanesulfonylamino-benzyl)-3-[2-(3-methoxy-pyrrolidin-1-yl)-6-trifluoromethyl-pyridin-3-yl]-acrylamide] | 410
13 | C#Cc1cc(CNC(=O)CCc2ccc(C(F)(F)F)nc2N2CCCC2)cc(F)c1NS(C)(=O)=O [Example 91, N-(3-Ethynyl-5-fluoro-4-methanesulfonylamino-benzyl)-3-(2-pyrrolidin-1-yl-6-trifluoromethyl-pyridin-3-yl)-propionamide] | 580
14 | C#Cc1cc(CNC(=O)/C=C/c2ccc(C(F)(F)F)nc2OC2CCCC2)cc(F)c1NS(C)(=O)=O [Example 92, 3-(2-Cyclopentoxy-6-trifluoromethyl-pyridin-3-yl)-N-(3-ethynyl-5-fluoro-4-methanesulfonylamino-benzyl)-acrylamide] | 520
15 | C#Cc1cc(CNC(=O)/C=C/c2ccc(C(F)(F)F)nc2OCC2CC2)cc(F)c1NS(C)(=O)=O [Example 93, 3-(2-Cyclopropylmethoxy-6-trifluoromethyl-pyridin-3-yl)-N-(3-ethynyl-5-fluoro-4-methanesulfonylamino-benzyl)-acrylamide] | 360
16 | C#Cc1cc(CNC(=O)/C=C/c2ccc(C(F)(F)F)nc2N(C)C)cc(F)c1NS(C)(=O)=O [Example 94, 3-(2-Dimethylamino-6-trifluoromethyl-pyridin-3-yl)-N-(3-ethynyl-5-fluoro-4-methanesulfonylamino-benzyl)-acrylamide] | 590
17 | CCOC(=O)C1CCN(c2nc(C(F)(F)F)ccc2/C=C/C(=O)NCc2ccc(NS(C)(=O)=O)c(F)c2)CC1 [Example 95, N-(3-Fluoro-4-methanesulfonylamino-benzyl)-3-[2-(4-ethoxycarbonyl-piperid-1-yl)-6-trifluoromethyl-pyridin-3-yl]-acrylamide] | 550
18 | C#Cc1cc(CNC(=O)/C=C/c2ccc(C(F)(F)F)nc2OCc2ccccc2)cc(F)c1NS(C)(=O)=O [Example 96, N-(3-Ethynyl-5-fluoro-4-methanesulfonylamino-benzyl)-3-(2-benzyloxy 6-trifluoromethyl-pyridin-3-yl)-acrylamide] | 1700
19 | CS(=O)(=O)Nc1c(F)cc(CNC(=O)/C=C/c2ccc(C(F)(F)F)nc2N2CCCC2)cc1C#N [Example 97, N-(3-Cyano-5-fluoro-4-methanesulfonylamino-benzyl)-3-(2-pyrrolidin-1-yl-6-trifluoromethyl-pyridin-3-yl)-acrylamide] | 290
20 | CCCCOc1nc(C(F)(F)F)ccc1/C=C/C(=O)NCc1cc(F)c(NS(C)(=O)=O)c(C#N)c1 [Example 98, 3-(2-Butoxy-6-trifluoromethyl-pyridin-3-yl)-N-(3-cyano-5-fluoro-4-methanesulfonylamino-benzyl)-acrylamide] | 190
21 | COCCOc1nc(C(F)(F)F)ccc1/C=C/C(=O)NCc1cc(F)c(NS(C)(=O)=O)c(C#N)c1 [Example 99, N-(3-Cyano-5-fluoro-4-methanesulfonylamino-benzyl)-3-[2-(2-methoxy-ethoxy)-6-trifluoromethyl-pyridin-3-yl]-acrylamide] | 1800
22 | COCCNc1nc(C(F)(F)F)ccc1/C=C/C(=O)NCc1cc(F)c(NS(C)(=O)=O)c(C#N)c1 [Example 101, N-(3-Cyano-5-fluoro-4-methanesulfonylamino-benzyl)-3-[2-(2-methoxy-ethylamino)-6-trifluoromethyl-pyridin-3-yl]-acrylamide] | 840
23 | CS(=O)(=O)Nc1c(F)cc(CNC(=O)/C=C/c2ccc(C(F)(F)F)nc2N2CCOCC2)cc1C#N [Example 103, N-(3-Cyano-5-fluoro-4-methanesulfonylamino-benzyl)-3-(2-morpholin-4-yl-6-trifluoromethyl-pyridin-3-yl)-acrylamide] | 5900
24 | CS(=O)(=O)Nc1ccc(CNC(=O)/C=C/c2ccc(C(F)(F)F)nc2OC2CCOC2)cc1F (stereo not shown) [Example 104, 3-[2-(Tetrahydro-furan-3-yloxy)-6-trifluoromethyl-pyridin-3-yl]-N-(3-fluoro-4-methanesulfonylamino-benzyl)-acrylamide] | 1600
25 | CS(=O)(=O)Nc1c(F)cc(CNC(=O)/C=C/c2ccc(C(F)(F)F)nc2Oc2ccccc2)cc1C#N [Example 105, N-(3-Cyano-5-fluoro-4-methanesulfonylamino-benzyl)-3-(2-phenoxy-6-trifluoromethyl-pyridin-3-yl)-acrylamide] | 630
26 | CCC(C)Oc1nc(C(F)(F)F)ccc1/C=C/C(=O)NCc1cc(F)c(NS(C)(=O)=O)c(C#N)c1 (stereo not shown) [Example 106, 3-(2-sec-Butoxy-6-trifluoromethyl-pyridin-3-yl)-N-(3-cyano-5-fluoro-4-methanesulfonylamino-benzyl)-acrylamide] | 83
27 | C#Cc1cc(CNC(=O)/C=C/c2ccc(C(F)(F)F)nc2-c2ccccc2)cc(F)c1NS(C)(=O)=O [Example 107, N-(3-Ethynyl-5-fluoro-4-methanesulfonylamino-benzyl)-3-(2-phenyl-6-trifluoromethyl-pyridin-3-yl)-acrylamide] | 510
28 | CC(C)Oc1nc(C(F)(F)F)ccc1/C=C/C(=O)NCc1ccc(NS(C)(=O)=O)c(F)c1 [Example 108, N-(3-Fluoro-4-methanesulfonylamino-benzyl)-3-(2-isopropoxy-6-trifluoromethyl-pyridin-3-yl)-acrylamide] | 740
